According to US10889555B2, “Sulfonamide compound or salt thereof” (Taiho Pharmaceutical Co., Ltd., priority 2016, dated 2021):
Read-outs that look alike come from different tables or passages of the source.

Legend:
[1] = test system: HCC 1806 cells; test: Cell proliferation inhibitory effect on human breast cancer cell line (crystal violet, 72 hours); format: cell-based; settings: read-out: Cell growth suppression IC50
Method in brief: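 Cells were seeded at 2,000/well in RPMI-1640 with 10% FBS and grown 1 day, then exposed to compound for 72 h at 37° C, 5% CO2. After glutaraldehyde fixation and 0.05% crystal violet staining, extracted dye was read at 540 nm. IC50 (μM) came from growth inhibition relative to untreated and cell-free wells.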

[2] = test system: various cancer cell lines as described in Table 21; test: Cell proliferation inhibitory effect on human cancer-derived cancer cell lines (method of Test Example 2); format: cell-based
Description: Human derived breast cancer cell line HCC 1806 cells were daily passaged at a cell density not exceeding 80% in ATCC recommended Roswell Park Memorial Institute medium (RPMI-1640) containing 10% fetal bovine serum (FBS). In order to start the test of cell proliferation inhibitory activity, HCC 1806 cells were suspended in the above medium, after seeing at 180 μL in each well of a 96-well flat bottom plate so that the number of cells per well was 2,000, the cells were cultured at 37° C. for 1 day in an incubator containing 5% carbon dioxide gas. On the next day, the test compound was dissolved in DMSO, and 20 μL of a drug additive solution diluted serially with distilled water to 10 times of the final concentration was added to each well of the culture plate of the cells, and the cells were cultured at 37° C. for 72 hours in an incubator containing 5% carbon dioxide gas. After culturing for 72 hours, 20 μL of glutaraldehyde was added to each well and allowed to stand for 30 minutes, then the plate was washed 10 times with water and was dried. 100 μL of a stain solution (0.05% crystal violet in a 20% methanol solution) was added to each well and allowed to stand for 30 minutes, then the plate was washed 10 times with water and was dried. 100 μL of an extract solution (0.1 N NaH2PO4: 100% ethanol=1:1) was added to each well and mixed, and the mixture was measured at a wavelength of 540 nm using a plate reader (MTP-450 manufactured by Corona Electric Co., Ltd.). The growth inhibition rate was calculated from the following formula, and the concentration (IC50 (μM)) of a test compound inhibiting 50% was determined. Growth inhibition rate (%)={(C−B)−(T−B)}/(C−B)×100
According to the method of Test Example 2, the cell proliferation inhibitory effect on various cancer cell lines as described in Table 21 was evaluated.

[3] = A673, Ewing's sarcoma, 2000 cell/well, read-out: cell proliferation inhibitory effect, A673
[4] = A2780, Ovarian Cancer, 2000 cell/well, read-out: cell proliferation inhibitory effect, A2780
[5] = ACHN, Kidney Cancer, 2000 cell/well, read-out: cell proliferation inhibitory effect, ACHN
[6] = CFPAC-1, Pancreatic Cancer, 2000 cell/well, read-out: cell proliferation inhibitory effect, CFPAC-1
[7] = DU-145, DU145, Prostate Cancer, 5000 cell/well, read-out: cell proliferation inhibitory effect, DU145
[8] = GB-1, Glioblastoma, 3000 cell/well, read-out: cell proliferation inhibitory effect, GB-1
[9] = HCT-116, HCT116, Colorectal Cancer, 1000 cell/well, read-out: cell proliferation inhibitory effect, HCT116
[10] = HLE, Liver Cancer, 3000 cell/well, read-out: cell proliferation inhibitory effect, HLE
[11] = MSTO-211H, Mesothelioma, 6000 cell/well, read-out: cell proliferation inhibitory effect, MSTO-211H
[12] = NCI-H460, Lung Cancer, 1000 cell/well, read-out: cell proliferation inhibitory effect, NCI-H460
[13] = NCI-H2170, Lung Cancer, 5000 cell/well, read-out: cell proliferation inhibitory effect, NCI-H2170
[14] = NCI-H2228, Lung Cancer, 5000 cell/well, read-out: cell proliferation inhibitory effect, NCI-H2228
[15] = NUGC-3, Stomach Cancer, 2000 cell/well, read-out: cell proliferation inhibitory effect, NUGC-3
[16] = RPMI7932, Melanoma, 4000 cell/well, read-out: cell proliferation inhibitory effect, RPMI7932

Row | SMILES | IC50 ([1]; Homo sapiens, HCC1806, 72 h) | IC50 [2, 3] | IC50 [2, 4] | IC50 [2, 5] | IC50 [2, 6] | IC50 [2, 7] | IC50 [2, 8] | IC50 [2, 9] | IC50 [2, 10] | IC50 [2, 11] | IC50 [2, 12] | IC50 [2, 13] | IC50 [2, 14] | IC50 [2, 15] | IC50 [2, 16] | IC50 [1]
1 | Cc1ccc(F)c([C@@H](C)[C@H](NS(=O)(=O)c2ccc(Cl)cc2C(N)=O)c2n[nH]c(=O)o2)c1C [Example 5] | 200 nM | 1090 nM | 830 nM | 750 nM | 940 nM | 1040 nM | 1570 nM | 910 nM | 790 nM | 700 nM | 730 nM | 1890 nM | 1270 nM | 1220 nM | 2670 nM | –
2 | Cc1ccc(F)c([C@@H](C)[C@H](NS(=O)(=O)c2ccc(Cl)c3c2OCCC3O)c2n[nH]c(=O)o2)c1C (single isomer, unassigned) [Example 235A] | – | 610 nM | 400 nM | 380 nM | 350 nM | 530 nM | 1120 nM | 480 nM | 420 nM | 390 nM | 350 nM | 1100 nM | 880 nM | 710 nM | 1230 nM | 130 nM
3 | CCc1ccc(F)c([C@@H](C)[C@H](NS(=O)(=O)c2ccc(Cl)cc2C(N)=O)c2n[nH]c(=O)o2)c1C [Example 11, 5-chloro-2-(N-((1S,2R)-2-(3-ethyl-6-fluoro-2-methylphenyl)-1-(5-oxo-4,5-dihydro-1,3,4-oxadiazol-2-yl)propyl)sulfamoyl)benzamide] | 640 nM | 2560 nM | 2080 nM | 1500 nM | 1710 nM | 1840 nM | 5220 nM | 2300 nM | 1740 nM | 1540 nM | 1500 nM | 3900 nM | 3210 nM | 3110 nM | 4740 nM | –
4 | Cc1c(Br)ccc(F)c1[C@@H](C)[C@H](NS(=O)(=O)c1ccc(Cl)c2c1OCCC2(C)O)c1n[nH]c(=O)o1 (single isomer, unassigned) [Example 222A] | – | 250 nM | 190 nM | 170 nM | 230 nM | 260 nM | 460 nM | 270 nM | 200 nM | 270 nM | 180 nM | 520 nM | 480 nM | 360 nM | 510 nM | 60 nM
5 | Cc1ccc(F)c([C@@H](C)[C@H](NS(=O)(=O)c2ccc(Br)cc2C(N)=O)c2n[nH]c(=O)o2)c1C [Example 1, 5-bromo-2-(N-((1 S,2R)-2-(6-fluoro-2,3-dimethylphenyl)-1-(5-oxo-4,5-dihydro-1,3,4-oxadiazol-2-yl)propyl)sulfamoyl)benzamide] | 160 nM | 920 nM | 630 nM | 680 nM | 540 nM | 730 nM | 1560 nM | 750 nM | 560 nM | 650 nM | 570 nM | 1410 nM | 1350 nM | 1120 nM | 1740 nM | –
6 | Cc1c(Cl)ccc(F)c1[C@@H](C)[C@H](NS(=O)(=O)c1ccc(Cl)c2c1OCCC2(C)O)c1n[nH]c(=O)o1 (single isomer, unassigned) [Example 209A] | – | 320 nM | 300 nM | 220 nM | 330 nM | 310 nM | 640 nM | 280 nM | 260 nM | 320 nM | 250 nM | 570 nM | 730 nM | 400 nM | 720 nM | 60 nM
7 | [2H]C([2H])([2H])C1(O)CCOc2c(S(=O)(=O)N[C@H](c3n[nH]c(=O)o3)[C@H](C)c3c(F)ccc(Cl)c3C)ccc(Cl)c21 (single isomer, unassigned) [Example 228A] | 140 nM | 400 nM | 380 nM | 320 nM | 360 nM | 340 nM | 850 nM | 380 nM | 290 nM | 370 nM | 310 nM | 880 nM | 740 nM | 510 nM | 650 nM | –
8 | Cc1cc(S(=O)(=O)N[C@H](c2n[nH]c(=O)o2)[C@H](C)c2c(F)ccc(C)c2C)c(C(N)=O)cc1Cl [Example 257, 5-chloro-2-(N-((1S,2R)-2-(6-fluoro-2,3-dimethylphenyl)-1-(5-oxo-4,5-dihydro-1,3,4-oxadiazol-2-yl)propyl)sulfamoyl)-4-methylbenzamide] | 200 nM | – | – | – | – | – | – | – | – | – | – | – | – | – | – | –
9 | Cc1ccc(F)c([C@@H](C)[C@H](NS(=O)(=O)c2ccc(Cl)c(C(=O)N3CC4CCC(C3)O4)n2)c2n[nH]c(=O)o2)c1C [Example 117, 6-(8-oxa-3-azabicyclo[3.2.1]octane-3-carbonyl)-5-chloro-N-((1S,2R)-2-(6-fluoro-2,3-dimethylphenyl)-1-(5-oxo-4,5 dihydro-1,3,4-oxadiazol-2-yl)propyl)pyridine-2-sulfonamide] | 310 nM | – | – | – | – | – | – | – | – | – | – | – | – | – | – | –
10 | Cc1ccc(F)c([C@@H](C)[C@H](NS(=O)(=O)c2ccc(Cl)c3c2OCC(=O)N3C)c2n[nH]c(=O)o2)c1C [Example 93, 5-chloro-N-((1S,2R)-2-(6-fluoro-2,3-dimethylphenyl)-1-(5-oxo-4,5-dihydro-1,3,4-oxadiazol-2-yl)propyl)-4-methyl-3-oxo-3,4-dihydro-2H-benzo[b][1,4]oxazine-8-sulfonamide] | 280 nM | – | – | – | – | – | – | – | – | – | – | – | – | – | – | –
11 | Cc1ccc(F)c([C@@H](C)[C@H](NS(=O)(=O)c2ccc(Cl)c(C(=O)N3C4CCC3COC4)n2)c2n[nH]c(=O)o2)c1C [Example 116, 6-(3-oxa-8-azabicyclo[3.2.1]octane-8-carbonyl)-5-chloro-N-((1S,2R)-2-(6-fluoro-2,3-dimethylphenyl)-1-(5-oxo-4,5-dihydro-1,3,4-oxadiazol-2-yl)propyl)pyridine-2-sulfonamide] | 320 nM | – | – | – | – | – | – | – | – | – | – | – | – | – | – | –
12 | [2H]C([2H])([2H])C1(O)CCOc2c(S(=O)(=O)N[C@H](c3n[nH]c(=O)o3)[C@H](C)c3c(F)ccc(C)c3C)ccc(Cl)c21 (single isomer, unassigned) [Example 200B] | – | – | – | – | – | – | – | – | – | – | – | – | – | – | – | 460 nM
13 | Cc1ccc(F)c([C@@H](C)[C@H](NS(=O)(=O)c2ccc(F)c3c2OCCC3O)c2n[nH]c(=O)o2)c1C (single isomer, unassigned) [Example 230A] | – | – | – | – | – | – | – | – | – | – | – | – | – | – | – | 290 nM
14 | Cc1ccc(F)c([C@@H](C)[C@H](NS(=O)(=O)c2ccc(Cl)c3c2OCCN3)c2n[nH]c(=O)o2)c1C [Example 275, 5-chloro-N-((1S,2R)-2-(6-fluoro-2,3-dimethylphenyl)-1-(5-oxo-4,5-dihydro-1,3,4-oxadiazol-2-yl)propyl)-3,4-dihydro-2H-benzo[b][1,4]oxazine-8-sulfonamide] | 370 nM | – | – | – | – | – | – | – | – | – | – | – | – | – | – | –
15 | Cc1ccc(F)c([C@@H](C)[C@H](NS(=O)(=O)c2ccc(Cl)c3c2OCCC3(C)O)c2n[nH]c(=O)o2)c1C (single isomer, unassigned) [Example 207A] | – | – | – | – | – | – | – | – | – | – | – | – | – | – | – | 70 nM
16 | Cc1ccc(F)c([C@@H](C)[C@H](NS(=O)(=O)c2ccc(Cl)c(C(=O)N3CCCC3)n2)c2n[nH]c(=O)o2)c1C [Example 114, 5-chloro-N-((1S,2R) 2-(6-fluoro-2,3-dimethylphenyl)-1-(5-oxo-4,5-dihydro-1,3,4-oxadiazol-2-yl)propyl)-6-(pyrrolidine-1-carbonyl)pyridine-2-sulfonamide] | 370 nM | – | – | – | – | – | – | – | – | – | – | – | – | – | – | –
17 | Cc1ccc(F)c([C@@H](C)[C@@H](c2n[nH]c(=O)o2)N(C)S(=O)(=O)c2ccc(Cl)cc2C(N)=O)c1C [Example 337, 5-chloro-2-(N-((1S,2R)-2-(6-fluoro-2,3-dimethylphenyl)-1-(5-oxo-4,5-dihydro-1,3,4 oxadiazol-2-yl)propyl)-N-methylsulfamoyl)benzamide] | 300 nM | – | – | – | – | – | – | – | – | – | – | – | – | – | – | –
